Patent US7211678B2, “Stable crystals of pyrrole compound” (Nippon Shinyaku Co., Ltd., priority 2001, dated 2007)

Experiments:
[1] = as described in WO96/40634; cited from earlier work
[2] = Dry grinding test (planet ball mill, evaluated by powder X-ray spectrum); assay type: physicochemical; details: 1 g, 2480 rpm for 5 hours
Protocol: Type-I crystal (1 g) and type-II crystal (1 g) were respectively charged in a planet ball mill (manufactured by Fritsch Japan) and then grinded at 2480 rpm for 5 hours. The grinded crystals were evaluated by a powder X-ray spectrum.

Structure (SMILES)	urinary bladder capacity increasing activity [1]	crystal transition after dry grinding [2]
Cc1c(-c2ccccc2F)[nH]c(N)c1C#N [the pyrrole compound, 2-amino-3-cyano-4-methyl-5-(2-fluorophenyl)pyrrole]	excellent urinary bladder capacity increasing activity	–
Cc1c(-c2ccccc2F)[nH]c(N)c1C#N [type-I crystal, 2-amino-3-cyano-4-methyl-5-(2-fluorophenyl)pyrrole]	–	No crystal transition was recognized
Cc1c(-c2ccccc2F)[nH]c(N)c1C#N [type-II crystal, 2-amino-3-cyano-4-methyl-5-(2-fluorophenyl)pyrrole, reference compound]	–	transition of crystals into type-I crystal was recognized
